Reference: patent publication US20050009730A1, “Treatment of cns disorders using cns target modulators” (priority 2001, published 2005)
pIC50, pKi: −log10 of the molar value. Where two headings read alike, the source gives them in different places. Marks after values point to notes of the source that are not given here.

Experiments:
[1] = target: T1, Muscarinic, M2 (Human Recombinant) (Homo sapiens, UniProt P08172); test: Receptor selectivity binding assay comparison; details: 1.0E−6
T1 sequence (P08172 1-466): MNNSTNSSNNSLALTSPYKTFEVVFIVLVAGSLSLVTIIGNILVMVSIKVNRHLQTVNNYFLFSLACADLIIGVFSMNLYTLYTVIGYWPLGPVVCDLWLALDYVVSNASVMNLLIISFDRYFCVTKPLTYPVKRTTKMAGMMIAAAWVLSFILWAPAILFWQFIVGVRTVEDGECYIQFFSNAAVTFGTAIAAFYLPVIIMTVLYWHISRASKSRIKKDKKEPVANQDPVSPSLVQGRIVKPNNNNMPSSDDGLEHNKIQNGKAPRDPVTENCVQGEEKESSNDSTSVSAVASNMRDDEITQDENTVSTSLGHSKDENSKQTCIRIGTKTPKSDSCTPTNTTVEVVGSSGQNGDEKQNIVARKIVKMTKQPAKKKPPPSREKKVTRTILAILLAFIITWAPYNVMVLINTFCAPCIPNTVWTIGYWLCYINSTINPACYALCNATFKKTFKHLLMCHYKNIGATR

Histamine, H2 = Histamine, H2 (Homo sapiens, UniProt P25021); test: Receptor selectivity binding assay comparison; details: 1.0E−6
Sequence of Histamine, H2 (P25021 whole entry): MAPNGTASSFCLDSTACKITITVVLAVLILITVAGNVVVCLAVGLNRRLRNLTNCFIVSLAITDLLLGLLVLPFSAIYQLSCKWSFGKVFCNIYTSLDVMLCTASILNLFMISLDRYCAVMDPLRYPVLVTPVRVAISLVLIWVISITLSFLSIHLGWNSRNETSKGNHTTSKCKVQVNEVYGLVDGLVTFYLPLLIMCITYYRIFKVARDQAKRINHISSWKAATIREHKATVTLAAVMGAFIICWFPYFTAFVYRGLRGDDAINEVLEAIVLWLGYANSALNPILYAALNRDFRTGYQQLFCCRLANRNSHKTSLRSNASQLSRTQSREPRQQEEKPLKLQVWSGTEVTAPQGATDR

HERG = HERG (Homo sapiens, UniProt Q12809)
Sequence of HERG (Q12809 whole entry): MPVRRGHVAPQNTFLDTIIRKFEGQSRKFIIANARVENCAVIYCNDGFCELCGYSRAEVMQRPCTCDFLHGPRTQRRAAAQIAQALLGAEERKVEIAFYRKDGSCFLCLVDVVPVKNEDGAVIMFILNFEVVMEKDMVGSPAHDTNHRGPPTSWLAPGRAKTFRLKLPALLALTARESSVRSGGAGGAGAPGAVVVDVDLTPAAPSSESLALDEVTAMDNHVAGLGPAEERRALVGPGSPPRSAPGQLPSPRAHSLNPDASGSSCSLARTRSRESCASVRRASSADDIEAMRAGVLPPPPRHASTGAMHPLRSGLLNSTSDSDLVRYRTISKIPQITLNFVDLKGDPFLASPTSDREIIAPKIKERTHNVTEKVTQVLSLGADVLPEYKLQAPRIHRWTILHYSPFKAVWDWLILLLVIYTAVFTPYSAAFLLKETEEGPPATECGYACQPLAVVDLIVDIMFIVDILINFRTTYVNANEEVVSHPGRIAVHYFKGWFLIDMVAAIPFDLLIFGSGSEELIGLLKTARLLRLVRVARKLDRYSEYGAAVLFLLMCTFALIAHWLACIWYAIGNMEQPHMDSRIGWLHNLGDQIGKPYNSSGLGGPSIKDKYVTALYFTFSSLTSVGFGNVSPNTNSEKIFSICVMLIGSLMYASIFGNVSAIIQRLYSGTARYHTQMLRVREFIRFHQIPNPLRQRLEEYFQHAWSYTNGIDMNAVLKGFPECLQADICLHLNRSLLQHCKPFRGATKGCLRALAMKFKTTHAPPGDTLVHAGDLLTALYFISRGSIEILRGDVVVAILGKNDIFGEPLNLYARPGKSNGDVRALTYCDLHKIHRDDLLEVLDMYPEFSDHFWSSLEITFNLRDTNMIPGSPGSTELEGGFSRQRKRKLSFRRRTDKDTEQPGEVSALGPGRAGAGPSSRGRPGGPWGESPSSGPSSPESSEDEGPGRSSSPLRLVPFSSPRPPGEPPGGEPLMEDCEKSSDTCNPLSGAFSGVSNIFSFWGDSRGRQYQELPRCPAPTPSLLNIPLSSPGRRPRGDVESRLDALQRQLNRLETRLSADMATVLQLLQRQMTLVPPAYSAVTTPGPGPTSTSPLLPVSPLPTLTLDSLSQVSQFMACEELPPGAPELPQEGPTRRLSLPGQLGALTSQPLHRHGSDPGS

Histamine, H1 = Histamine, H1 (Homo sapiens, UniProt P35367); test: H1 binding assay by displacement of known standards; details: for pKi: read-out: H1 Ki
Sequence of Histamine, H1 (P35367 whole entry): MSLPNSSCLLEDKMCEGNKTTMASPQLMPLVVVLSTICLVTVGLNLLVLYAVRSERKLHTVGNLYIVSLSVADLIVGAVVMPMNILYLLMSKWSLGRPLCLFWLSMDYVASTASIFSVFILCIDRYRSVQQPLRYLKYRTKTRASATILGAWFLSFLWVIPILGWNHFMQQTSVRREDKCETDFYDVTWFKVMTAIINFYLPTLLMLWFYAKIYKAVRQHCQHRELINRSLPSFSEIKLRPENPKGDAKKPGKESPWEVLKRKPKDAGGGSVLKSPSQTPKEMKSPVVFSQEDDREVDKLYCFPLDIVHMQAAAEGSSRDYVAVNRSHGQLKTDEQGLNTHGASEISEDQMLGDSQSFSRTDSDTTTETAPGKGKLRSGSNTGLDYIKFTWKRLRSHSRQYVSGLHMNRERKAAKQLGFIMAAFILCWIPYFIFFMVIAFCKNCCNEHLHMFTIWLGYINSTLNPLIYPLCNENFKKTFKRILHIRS
Experimental: (§1) The following binding assays were performed on the Series 11 compounds described above by displacement of known standards from the H1, M1, M2, and M3 receptors, wherein H1 is a histamine receptor, and M1, M2, and M3 are muscarinic receptors.
The binding studies against the histamine receptor, H1, indicate binding affinity, and therefore the results of the binding assays are an indication of the activity of the compound. […]
The following binding assays were performed on additional compounds described above by displacement of known standards from the H1, M1, M2, and M3 receptors, wherein H1 is a histamine receptor, and M1, M2, and M3 are muscarinic receptors.
The binding assays for H1 was the same as described in Example 10 and the M1, M2, and M3 binding assays are the same as those described in Example 10 for human recombinant expressed cells.

muscarinic receptors = test: Muscarinic receptor binding, M1, M2 and M3 taken together in the conclusions
Experimental: as §1
(§2) In addition, the binding studies against the muscarinic receptors indicate the extent to which the compounds bind the muscarinic receptors, responsible for anti-cholinergic activity of the compound. Binding to muscarinic receptors results in several undesired side effects of many known antihistamines, e.g., dry-mouth. A decrease in the binding of the compounds to the M1-M3 receptors, relative the binding of the compound to the H1 receptor, is an indication of the greater specificity of the compound for the histamine receptor over the muscarinic receptor.

[2] = in human blood; cited from earlier work
M1 muscarinic receptor = target: T2, M1 muscarinic receptor (Homo sapiens, UniProt P11229); test: M1 binding assay by displacement of known standards (Example 11)
T2 sequence (P11229 1-460): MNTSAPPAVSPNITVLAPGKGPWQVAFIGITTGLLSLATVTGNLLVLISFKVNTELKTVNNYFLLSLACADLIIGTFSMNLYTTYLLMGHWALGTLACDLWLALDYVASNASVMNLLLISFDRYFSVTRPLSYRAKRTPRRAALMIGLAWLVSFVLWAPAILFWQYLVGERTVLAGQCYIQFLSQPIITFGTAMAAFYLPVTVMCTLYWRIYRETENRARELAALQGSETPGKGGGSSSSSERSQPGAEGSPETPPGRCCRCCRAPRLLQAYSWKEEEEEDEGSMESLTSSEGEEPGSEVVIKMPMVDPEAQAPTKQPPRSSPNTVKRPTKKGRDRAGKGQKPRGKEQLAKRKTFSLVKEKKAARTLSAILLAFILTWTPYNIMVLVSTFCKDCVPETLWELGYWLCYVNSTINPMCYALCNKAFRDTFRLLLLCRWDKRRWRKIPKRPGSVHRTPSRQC
Experimental: as §1, §2

M3 muscarinic receptor = M3 muscarinic receptor (Homo sapiens, UniProt P20309); test: M3 binding assay by displacement of known standards (Example 11)
Sequence of M3 muscarinic receptor (P20309 whole entry): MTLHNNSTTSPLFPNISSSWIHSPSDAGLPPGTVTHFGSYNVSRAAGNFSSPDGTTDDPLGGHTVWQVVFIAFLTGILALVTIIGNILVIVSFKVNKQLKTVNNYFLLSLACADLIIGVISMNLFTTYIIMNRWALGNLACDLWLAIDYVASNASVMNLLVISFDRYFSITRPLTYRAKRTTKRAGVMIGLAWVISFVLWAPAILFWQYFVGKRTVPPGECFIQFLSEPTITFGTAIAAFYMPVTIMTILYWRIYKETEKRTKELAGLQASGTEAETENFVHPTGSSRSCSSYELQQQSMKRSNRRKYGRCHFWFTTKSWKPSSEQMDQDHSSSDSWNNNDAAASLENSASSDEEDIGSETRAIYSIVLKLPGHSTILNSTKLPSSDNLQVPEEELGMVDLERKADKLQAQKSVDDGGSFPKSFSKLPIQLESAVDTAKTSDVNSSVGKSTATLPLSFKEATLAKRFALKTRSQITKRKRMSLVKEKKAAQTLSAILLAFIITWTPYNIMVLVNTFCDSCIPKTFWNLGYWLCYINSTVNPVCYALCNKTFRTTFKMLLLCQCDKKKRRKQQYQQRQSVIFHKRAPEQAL
Experimental: as §1, §2

M2 muscarinic receptor = target: T3, M2 muscarinic receptor (Homo sapiens, UniProt P08172); test: M2 binding assay by displacement of known standards (Example 11)
T3 sequence (P08172 1-466): T1 sequence (P08172 1-466)
Experimental: as §1, §2

[3] = target: T4, Muscarinic, M1 (Human Recombinant) (Homo sapiens, UniProt P11229); test: Receptor selectivity binding assay comparison; details: 1.0E−6
T4 sequence (P11229 1-460): T2 sequence (P11229 1-460)

Male Wistar rats = test: Sleep-wakefulness, locomotor activity and body temperature monitoring (SCORE-2000), treatment at CT-18; details: 30 mg/kg PO, at CT-18
[4] = target: Norepinephrine Transporter (Homo sapiens, UniProt P23975); test: Receptor selectivity binding assay comparison; details: 1.0E−6
Sequence of Norepinephrine Transporter (P23975 whole entry, species assumed): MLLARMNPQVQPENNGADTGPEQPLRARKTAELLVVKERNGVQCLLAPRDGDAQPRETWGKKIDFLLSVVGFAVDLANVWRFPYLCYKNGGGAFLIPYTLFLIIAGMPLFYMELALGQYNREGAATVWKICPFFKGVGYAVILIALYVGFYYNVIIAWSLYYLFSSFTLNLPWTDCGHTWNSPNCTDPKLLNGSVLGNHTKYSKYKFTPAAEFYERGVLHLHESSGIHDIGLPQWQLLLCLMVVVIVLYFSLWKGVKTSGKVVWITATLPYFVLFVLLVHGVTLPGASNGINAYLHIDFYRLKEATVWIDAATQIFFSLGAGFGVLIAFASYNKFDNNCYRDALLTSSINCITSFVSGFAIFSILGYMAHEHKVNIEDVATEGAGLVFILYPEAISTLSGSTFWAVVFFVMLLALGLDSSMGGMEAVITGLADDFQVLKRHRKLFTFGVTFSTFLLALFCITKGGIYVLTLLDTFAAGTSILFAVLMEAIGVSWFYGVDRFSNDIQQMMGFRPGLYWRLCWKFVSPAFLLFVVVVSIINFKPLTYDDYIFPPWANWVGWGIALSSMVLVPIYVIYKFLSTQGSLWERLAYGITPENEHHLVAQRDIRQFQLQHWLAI

CN(C)CCC=C1c2ccccc2COc2ccccc21 [Doxepin, reference compound]
Percent Inhibition, Histamine, H2 (Histamine, H2): 74.7%
Percent Inhibition, HERG (HERG): 23%**

O=C(CCN1CCC(=C(c2ccccc2)c2ccccc2)CC1)OC1CCOC1 (stereo not shown) [Series 11h]
pIC50 (Histamine, H1): 6.70
difference in binding affinity towards the H1 receptor between the enantiomeric compounds (Histamine, H1): do not result in a substantial difference
pKi (Histamine, H1): 7.05
difference in binding affinity towards the muscarinic receptors between the enantiomeric compounds (muscarinic receptors): do show a substantial difference

Nc1ncnc2c1ncn2[C@@H]1O[C@H](CO)[C@@H](O)[C@H]1O [adenosine]
half-life [2]: < 1 s

O=C(CCN1CCC(=C(c2ccccc2)c2ccccc2)CC1)O[C@H]1CCOC1 [Series 11g]
pIC50 (M1 muscarinic receptor): 5.33
pKi (M1 muscarinic receptor): 6.44
pIC50 (M3 muscarinic receptor): 5.24
pKi (M3 muscarinic receptor): 5.81
pIC50 (M2 muscarinic receptor): 5.24
pKi (M2 muscarinic receptor): 5.68
pIC50 (Histamine, H1): 6.71
difference in binding affinity towards the H1 receptor between the enantiomeric compounds (Histamine, H1): do not result in a substantial difference
pKi (Histamine, H1): 7.06
difference in binding affinity towards the muscarinic receptors between the enantiomeric compounds (muscarinic receptors): do show a substantial difference

O=C(O)CCN1CCC(=C2c3ccccc3COc3ccccc32)CC1 [Series 8a]
Percent Inhibition, Muscarinic, M1 (Human Recombinant) [3]: 3.3%
Percent Inhibition, Histamine, H2 (Histamine, H2): 33.4%
Ki (Histamine, H1; read-out: Receptor Binding Data (Ki nM) H1): 62.5 nM
Average Bout-Length (Male Wistar rats): 12.2 min
Maximum Bout Length (Male Wistar rats): 28.9 min
NREM Accum. (Male Wistar rats): 65.8 min
NREM Peak (Male Wistar rats): 75.5 %/hr
Onset (Male Wistar rats): 65 min
Percent Inhibition, Norepinephrine Transporter [4]: −3.9%
Percent Inhibition, HERG (HERG): 4%
